In patent US10294202B2, “Pyrrolidinones as herbicides” (FMC Corporation, priority 2013, dated 2019):

Columns and labels:
wheat = assay: Test A pre-/postemergence herbicide test; format: in vivo, Triticum aestivum
How it was run: (§1)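 Visual 0–100 ratings (100 = complete control) made about 10 days after treatment, greenhouse-held plants compared with untreated controls. Treatments: postemergence sprays on one- to two-leaf plants (2–10 cm tall) and preemergence directed soil sprays after planting in loam–sand, chemicals formulated in non-phytotoxic solvent containing surfactant.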

barnyardgrass [1] = assay: Test A pre-/postemergence herbicide test; format: in vivo, Echinochloa crus-galli
How it was run: as §1

morningglory = assay: Test A pre-/postemergence herbicide test; format: in vivo, Ipomoea spp.
How it was run: as §1

corn = assay: Test A pre-/postemergence herbicide test; format: in vivo, Zea mays
How it was run: as §1

rice = assay: Test B flooded paddy test; format: in vivo, Oryza sativa; conditions: Flood, scale of 0 to 100 where 0 is no effect and 100 is complete control
How it was run: (§2)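 Plants grown to 2-leaf stage; pots flooded 3 cm above soil and compound applied directly into paddy water, depth held throughout. Visual rating against untreated controls after 13 to 15 days in greenhouse, 0 (no effect) to 100 (complete control).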

sedge, umbrella = assay: Test B flooded paddy test; format: in vivo, Cyperus difformis; conditions: Flood, scale of 0 to 100 where 0 is no effect and 100 is complete control
How it was run: as §2

giant foxtail = assay: Test A pre-/postemergence herbicide test; format: in vivo, Setaria faberii
How it was run: as §1

barnyardgrass [2] = assay: Test B flooded paddy test; format: in vivo, Echinochloa crus-galli; conditions: Flood, scale of 0 to 100 where 0 is no effect and 100 is complete control
How it was run: as §2

pigweed = assay: Test A pre-/postemergence herbicide test; format: in vivo, Amaranthus retroflexus
How it was run: as §1

crabgrass, large = assay: Test A pre-/postemergence herbicide test; format: in vivo, Digitaria sanguinalis
How it was run: as §1

velvetleaf = assay: Test A pre-/postemergence herbicide test; format: in vivo, Abutilon theophrasti
How it was run: as §1

ducksalad = assay: Test B flooded paddy test; format: in vivo, Heteranthera limosa; conditions: Flood, scale of 0 to 100 where 0 is no effect and 100 is complete control
How it was run: as §2

[3] = Postemergence, 125 g ai/ha, 0 to 100 scale, 0 no effect, 100 complete control
[4] = Postemergence, 500 g ai/ha, 0 to 100 scale (0 no effect, 100 complete control)
[5] = Preemergence, 125 g ai/ha, visual rating on 0 to 100 scale (0 no effect, 100 complete control)
[6] = preemergence, 500 g ai/ha, 0 to 100 scale
[7] = Postemergence, 1000 g ai/ha, 0 to 100 scale (0 no effect, 100 complete control)
[8] = Preemergence, 1000 g ai/ha, visual rating on 0 to 100 scale (0 no effect, 100 complete control), approx. 10 days
[9] = 125 g ai/ha, visual rating, 0 to 100 scale, 0 no effect, 100 complete control, approximately 10 days, preemergence
[10] = Postemergence, 125 g ai/ha, 0 to 100 scale, 0 is no effect, 100 is complete control
[11] = preemergence, 500 g ai/ha, 0 to 100 scale, 0 is no effect and 100 is complete control

COc1cccc(C2CNC(=O)C2C(=O)Nc2ccccc2F)c1 (racemic) [Compound 36]
70: Plant response rating, Foxtail, Giant (giant foxtail; [6])
80: Plant response rating, Barnyardgrass (barnyardgrass [1]; [4]) | Plant response rating, Barnyardgrass (barnyardgrass [1]; preemergence, 500 g ai/ha, 0 to 100 scale (0 no effect, 100 complete control)) | Plant response rating, Crabgrass, Large (crabgrass, large; [6])
40: Barnyardgrass plant response rating (barnyardgrass [1]; [5]) | Plant response rating, Sedge, Umbrella (sedge, umbrella; 250 g ai/ha)
60: Plant response rating, Ducksalad (ducksalad; 250 g ai/ha)
20: Plant response rating, Wheat (wheat; [6]) | Plant response rating, Foxtail, Giant (giant foxtail; [4]) | Foxtail, Giant plant response rating (giant foxtail; [5]) | Plant response rating, Crabgrass, Large (crabgrass, large; [4]) | Crabgrass, Large plant response rating (crabgrass, large; [5])
0: Plant response rating, Wheat (wheat; [3]) | Plant response rating, Wheat (wheat; [4]) | Wheat plant response rating (wheat; [5]) | Plant response rating, Barnyardgrass (barnyardgrass [1]; [3]) | Plant response rating, Morningglory (morningglory; [3]) | Plant response rating, Morningglory (morningglory; [4]) | Morningglory plant response rating (morningglory; [5]) | Plant response rating, Morningglory (morningglory; [6]) | Plant response rating, Corn (corn; [3]) | Plant response rating, Corn (corn; [4]) | Corn plant response rating (corn; [5]) | Plant response rating, Corn (corn; [6]) | Plant response rating, Rice (rice; 250 g ai/ha) | Plant response rating, Foxtail, Giant (giant foxtail; [3]) | Plant response rating, Barnyardgrass (barnyardgrass [2]; 250 g ai/ha) | Plant response rating, Pigweed (pigweed; [3]) | Plant response rating, Pigweed (pigweed; [4]) | Pigweed plant response rating (pigweed; [5]) | Plant response rating, Pigweed (pigweed; [6]) | Plant response rating, Crabgrass, Large (crabgrass, large; [3]) | Plant response rating, Velvetleaf (velvetleaf; [3]) | Plant response rating, Velvetleaf (velvetleaf; [4]) | Velvetleaf plant response rating (velvetleaf; [5]) | Plant response rating, Velvetleaf (velvetleaf; [6])

Cc1c(Cl)cccc1NC(=O)C1C(=O)NCC1c1ccc(F)c(F)c1 (racemic) [Compound 100]
25: Plant response rating, Barnyardgrass (barnyardgrass [2]; 1000 g ai/ha)
20: Plant response rating, Wheat (wheat; [8]) | Plant response rating, Corn (corn; [8])
0: Plant response rating, Morningglory (morningglory; [7]) | Plant response rating, Morningglory (morningglory; [8]) | Plant response rating, Rice (rice; 1000 g ai/ha) | Plant response rating, Sedge, Umbrella (sedge, umbrella; 1000 g ai/ha) | Plant response rating, Pigweed (pigweed; [7]) | Plant response rating, Pigweed (pigweed; [8]) | Plant response rating, Velvetleaf (velvetleaf; [7]) | Plant response rating, Velvetleaf (velvetleaf; [8])
40: Plant response rating, Corn (corn; [7])
80: Plant response rating, Barnyardgrass (barnyardgrass [1]; [7]) | Plant response rating, Foxtail, Giant (giant foxtail; [7])
30: Plant response rating, Wheat (wheat; [7])
90: Plant response rating, Barnyardgrass (barnyardgrass [1]; [8]) | Plant response rating, Foxtail, Giant (giant foxtail; [8]) | Plant response rating, Crabgrass, Large (crabgrass, large; [7]) | Plant response rating, Crabgrass, Large (crabgrass, large; [8])
75: Plant response rating, Ducksalad (ducksalad; 1000 g ai/ha)

COc1cc(C2CNC(=O)C2C(=O)Nc2ccccc2C(F)(F)F)ccc1F (racemic) [Compound 196]
100: Plant response rating, Crabgrass, Large (crabgrass, large; [11])
30: Plant response rating, Barnyardgrass (barnyardgrass [1]; [10])
70: Plant response rating, Barnyardgrass (barnyardgrass [1]; [11]) | Foxtail, Giant plant response rating (0 to 100 scale, 0 is no effect, 100 is complete control) (giant foxtail; Postemergence, 500 g ai/ha) | Plant response rating, Crabgrass, Large (crabgrass, large; [10])
20: Plant response rating, Foxtail, Giant (giant foxtail; [10]) | Plant response rating, Barnyardgrass (barnyardgrass [2]; 1000 g ai/ha)
90: Plant response rating, Foxtail, Giant (giant foxtail; [11]) | Plant response rating, Crabgrass, Large (crabgrass, large; [9]) | Plant response rating, Ducksalad (ducksalad; 1000 g ai/ha)
80: Barnyardgrass plant response rating (0 to 100 scale, 0 is no effect, 100 is complete control) (barnyardgrass [1]; Postemergence, 500 g ai/ha) | Plant response rating, Foxtail, Giant (giant foxtail; [9]) | Crabgrass, Large plant response rating (0 to 100 scale, 0 is no effect, 100 is complete control) (crabgrass, large; Postemergence, 500 g ai/ha)
0: Plant response rating, Wheat (wheat; [9]) | Plant response rating, Wheat (wheat; [10]) | Wheat plant response rating (0 to 100 scale, 0 is no effect, 100 is complete control) (wheat; Postemergence, 500 g ai/ha) | Plant response rating, Wheat (wheat; [11]) | Plant response rating, Barnyardgrass (barnyardgrass [1]; [9]) | Plant response rating, Morningglory (morningglory; [9]) | Plant response rating, Morningglory (morningglory; [10]) | Morningglory plant response rating (0 to 100 scale, 0 is no effect, 100 is complete control) (morningglory; Postemergence, 500 g ai/ha) | Plant response rating, Morningglory (morningglory; [11]) | Plant response rating, Corn (corn; [9]) | Plant response rating, Corn (corn; [10]) | Corn plant response rating (0 to 100 scale, 0 is no effect, 100 is complete control) (corn; Postemergence, 500 g ai/ha) | Plant response rating, Corn (corn; [11]) | Plant response rating, Rice (rice; 250 g ai/ha) | Plant response rating, Rice (rice; 1000 g ai/ha) | Plant response rating, Sedge, Umbrella (sedge, umbrella; 250 g ai/ha) | Plant response rating, Sedge, Umbrella (sedge, umbrella; 1000 g ai/ha) | Plant response rating, Barnyardgrass (barnyardgrass [2]; 250 g ai/ha) | Plant response rating, Pigweed (pigweed; [9]) | Plant response rating, Pigweed (pigweed; [10]) | Pigweed plant response rating (0 to 100 scale, 0 is no effect, 100 is complete control) (pigweed; Postemergence, 500 g ai/ha) | Plant response rating, Pigweed (pigweed; [11]) | Plant response rating, Velvetleaf (velvetleaf; [9]) | Plant response rating, Velvetleaf (velvetleaf; [10]) | Velvetleaf plant response rating (0 to 100 scale, 0 is no effect, 100 is complete control) (velvetleaf; Postemergence, 500 g ai/ha) | Plant response rating, Velvetleaf (velvetleaf; [11]) | Plant response rating, Ducksalad (ducksalad; 250 g ai/ha)
